# How the values were obtained:
# Test in all cases: Growth inhibition on agar plates, crystalline material swabbed on
# Assay type in all cases: cell-based
# Escherichia coli = settings: agar plate containing Escherichia coli
# Excerpt: (§1) A chalky, white substance presumptively identified as monosodium urate monohydrate crystals was extracted from the subcutaneous area of an elbow of a patient presenting with a soft tissue gouty tophus at the elbow. […] The crystalline substance was swabbed onto agar plates containing Staphylococcus aureus, Staphylococcus pyogenes, Neisseria meningitis, Neisseria gonorrhorea, Escherichia coli, Methicillin resistant Staphylococcus aureus, Haemophilus influenza or Serratia Marcessens. The crystalline material inhibited the growth of the microorganisms as indicated below in Table 1.
# Haemophilus influenza = settings: agar plate containing Haemophilus influenza
# Excerpt: as §1
# [1] = test system: Methicillin resistant Staphylococcus aureus; settings: agar plate containing Methicillin resistant Staphylococcus aureus
# Excerpt: as §1
# Neisseria gonorrhorea = settings: agar plate containing Neisseria gonorrhorea
# Excerpt: as §1
# Neisseria meningitis = settings: agar plate containing Neisseria meningitis
# Excerpt: as §1
# Serratia Marcessens = settings: agar plate containing Serratia Marcessens
# Excerpt: as §1
# Staphylococcus aureus = test system: Staphylococcus aureus
# Excerpt: as §1
# Staphylococcus pyogenes = settings: agar plate containing Staphylococcus pyogenes
# Excerpt: as §1
compound,measurement,setting,value
"O.O=c1[n-]c2c(=O)[nH]c(=O)[nH]c2[nH]1.[Na+] [Monosodium Urate Monohydrate, monosodium urate monohydrate]",Antimicrobial activity (growth inhibition),Escherichia coli,Did not inhibit growth
same,Antimicrobial activity (growth inhibition),Haemophilus influenza,Did not inhibit growth
same,Antimicrobial activity (growth inhibition),[1],Did not inhibit growth
same,Antimicrobial activity (growth inhibition),Neisseria gonorrhorea,Inhibited growth
same,Antimicrobial activity (growth inhibition),Neisseria meningitis,Inhibited growth
same,Antimicrobial activity (growth inhibition),Serratia Marcessens,Did not inhibit growth
same,bacteriocidal activity,Staphylococcus aureus; against S. aureus,exhibited bacteriocidal activity
same,Antimicrobial activity (growth inhibition),Staphylococcus aureus; agar plate containing Staphylococcus aureus,Inhibited growth
same,Antimicrobial activity (growth inhibition),Staphylococcus pyogenes,Inhibited growth
